Results on two compounds are retold here after US6610674B1, “Method of treating inflammatory conditions with progesterone analogs” (University of Pennsylvania, priority 1999, dated 2003).

Structures are written as SMILES. Values joined by “and” are separate entries in the source; they are usually repeats but may differ in a detail not shown here. Equal entries are not always repeated.

Data set [1] deals with lymphocytes infiltrating the large bowel lamina propria. Briefly: scid mouse model of Inflammatory Bowel Disease: lymphocytes infiltrating the large bowel lamina propria. The class given is in vivo, scid C.B.-17 mice. As to conditions: for effect on lymphocyte infiltration into the bowel (in words): compared to buffer control; for effect on lymphocyte infiltration into the bowel (in words) / CD4+ Lymphocytes, Average / CD4+ as a percent of total Lymphocytes, Average / Total Lymphocytes, Average: 25 mg/kg orally each day; for CD4+ Lymphocytes, Average / CD4+ as a percent of total Lymphocytes, Average / Total Lymphocytes, Average: group average; for CD4+ Lymphocytes / CD4+ as a percent of total Lymphocytes / Total Lymphocytes: individual mouse, 25 mg/kg orally each day until sacrifice, lamina propria, 25 mg/kg. The text has this:
The scid (severe combined immunodeficient) C.B.-17 line of mice provide an effective model of Inflammatory Bowel Disease. The disease state in these mice is triggered by the intraperitoneal injection of CD4+ T cells from a normal BALB/C mouse. The induced disease is characterized by intestinal inflammation in the large intestine, leukocytic infiltrates into the mucosa, submucosa, and mucularis, epithelial cell hyperplasia, loss of mucin-secreting cells, and ulcers with deep fissures, and diarrhea. In the mouse model, CD4+ T cells and macrophages infiltrate the bowel. The scid mouse is recognized by the art as a model for IBD. Powrie et al., Inhibition of Th1 Responses Prevents Inflammatory Bowel Disease in scid Mice Reconstituted with CD45RBhi CD4+ T Cells, Immunity 1:553-562 (1994).
500,000 to 1×10^6 T cells derived from the lymph nodes of normal BALB/C mice were injected intraperitoneally into scid mice 6 weeks prior to sacrifice. 2 days before lymphocyte administration, treatment of the scid mice began with buffer control, medroxyprogesterone acetate, or 17-hydroxyprogesterone. The treatment mice (5 in each group) received 25 mg/kg of drug orally each day until sacrifice.
After sacrifice, lamina propria (bowel wall) lymphocytes were isolated from each animal. The total number of lymphocytes, number of CD4+ lymphocytes, and the percent of CD4+ lymphocytes was determined. CD4+ lymphocytes were identified by using a first antibody directed to CD4, and a second antibody directed to the first antibody. The second antibody was tagged with fluorescein, which lights up as green in a flow cytometer, identifying which lymphocytes are the CD4+ form. Lymphocyte infiltration into the bowel is a predictor of the progress of the disease because lymphocytes are involved in the inflammatory response leading to damage of the bowel wall.

In data set [2] the test system is IL-6 release from macrophages. Briefly: IL-6 release (ELISA) from spleen macrophages of treated mice. The class given is cell-based, mouse. The procedure:
The spleens of four of the mice from Example 1 were removed after the animals were sacrificed. Macrophages were isolated from the spleen of the medroxyprogesterone acetate or buffer control treated mice. IL-6 release from these macrophages was measured by ELISA following stimulation with rat anti-mouse macrophage Fc receptor antibody 2.4G2 and F(ab′)2 IgG goat anti-rat antibody. The effect of medroxyprogesterone acetate on IL-6 release is illustrated in Table 3.

In data set [3] the test system is Patients with mild to moderate Crohn's disease. Briefly: Treatment of patients with Crohn's disease (CDAI). The class given is in vivo, human. The protocol:
Patients with mild to moderate Crohn's disease were evaluated for their response to treatment with […]. Patients in the treatment group (12 patients) recieved a loading dose of 1 gram of medroxyprogesterone acetate every 6 hours for 8 doses. These patients were then given 500 mg of medroxyprogesterone every 12 hours for 8 weeks.
Disease improvement was measured using the Crohn's Disease Activity Index (CDAI). The CDAI score for a patient was calculated by multiplying the numerical value for each variable by multiplication factor indicated for that variable, and totaling all of the resultant values, as shown in Table 5. A score below 150 indicated remission and a score above 450 indicated severe disease. In order to enter the study, patients were required to have a total CDAI score of 200 to 400 at baseline.
Disease remission was defined as a CDAI score of 150 or below. Disease response was defined as either a decrease of 70 or greater in the CDAI or disease remission.

Data set [4] has as its system TNF-α release from macrophages. Briefly: TNF-α release (ELISA) from spleen macrophages of treated mice. The class given is cell-based, mouse. The procedure:
The spleens of six of the mice from Example 1 were removed after the animals were sacrificed. Macrophages were isolated from the spleen of the medroxyprogesterone acetate or buffer control treated mice. TNF-α release from these macrophages was measured by ELISA following stimulation with either (1) rat anti-mouse macrophage Fc receptor antibody 2.4G2 and F(ab′)2 IgG goat anti-rat antibody, or (2) phorbol myristate acetate (“PMA”), a phorbol ester. The effect of medroxyprogesterone acetate on TNF-α release is illustrated in Table 2.

The subject of data set [5] is Patients with mild to moderate ulcerative colitis. The experiment in a line: Treatment of patients with ulcerative colitis (Disease Activity Index). The format is in vivo, human. The protocol:
Patients with mild to moderate ulcerative colitis were evaluated for their response to treatment with medroxyprogesterone acetate. Patients in the treatment group (8 patients) received a loading dose of 1 gram of medroxyprogesterone acetate every 6 hours for 8 doses. These patients were then given 500 mg of medroxyprogesterone every 12 hours for 8 weeks.
Disease improvement was measured using the Disease Activity Index (DAI). The DAI is a total score for stool frequency, blood in the stool, the investigator's global assessment (IGA), and the physician's evaluation of the appearance of mucosa during flexible sigmoidoscopy of the colon.

Where [6] appears, read: individual mouse, stimulation 2.4G2 and F(ab′)2 IgG anti-rat, listed as MPA.

As for `CC(=O)[C@@]1(O)CC[C@H]2[C@@H]3CCC4=CC(=O)CC[C@]4(C)[C@H]3CC[C@@]21C` [17-hydroxyprogesterone], in data set [1], the “effect on lymphocyte infiltration into the bowel (in words)” value was “did not work in treating the mice”; the “CD4+ Lymphocytes, Average” value is 16.3 1 × 106; the “CD4+ as a percent of total Lymphocytes, Average” value is 88.0%; the “Total Lymphocytes, Average” value was 18.4 1 × 106. Moreover, in data set [1], the “CD4+ Lymphocytes” value is 8.9 1 × 106 and 1.6 1 × 106 and 15 1 × 106 and 23 1 × 106; the “CD4+ as a percent of total Lymphocytes” value is 89% and 81% and 93% and 91%; the “Total Lymphocytes” value was 10 1 × 106 and 2 1 × 106 and 16.5 1 × 106 and 25.2 1 × 106.
Regarding `CC(=O)O[C@]1(C(C)=O)CC[C@H]2[C@@H]3C[C@H](C)C4=CC(=O)CC[C@]4(C)[C@H]3CC[C@@]21C` [Medroxyprogesterone Acetate, pregn-4-ene-3,20-dione, 17-(acetyloxy)-6-methyl-, (6α)-], in data set [2] (setting [6]), the “IL-6 Measurement” value is 298,940 and 266,557. Also, in data set [2] (macrophages from treated mice), the “effect on IL-6 release from macrophages (in words)” value is “may be inhibiting IL-6 release from macrophages”. Further, in data set [1], the “effect on lymphocyte infiltration into the bowel (in words)” value is given as “effective in decreasing lymphocyte infiltration into the bowel”; the “CD4+ Lymphocytes, Average” value is listed as 3.8 1 × 106; the “CD4+ as a percent of total Lymphocytes, Average” value is reported as 81.4%; the “Total Lymphocytes, Average” value is 4.5 1 × 106. Also, in data set [1], the “CD4+ Lymphocytes” value is 1.6 1 × 106 and 4.1 1 × 106 and 1.3 1 × 106 and 3.0 1 × 106 and 9.2 1 × 106; the “CD4+ as a percent of total Lymphocytes” value is 81% and 87% and 65% and 83% and 91%; the “Total Lymphocytes” value was 2 1 × 106 (2×) and 4.8 1 × 106 and 3.6 1 × 106 and 10.2 1 × 106. In data set [3] (12 patients treated), the “adverse event leading to drop out” value is “One patient dropped out for a minor adverse event (fatigue)”. For the same compound, the “Remissions (CDAI score of 150 or below)” value in data set [3] (Completers (10 patients), 8 weeks) is recorded as 7. For the same compound, in data set [4] (setting [6]), the “TNF-α Measurement” value is 2314 pg/mL and 27563 pg/mL and 1843 pg/mL; the “TNF-α Repeat Measurement” value was 1026 pg/mL and 0 pg/mL. The “TNF-α Repeat Measurement” value in data set [4] (individual mouse, stimulation PMA for Repeat Measurement) is 0 pg/mL. Besides, the “effect on TNF-α release from macrophages (in words)” value in data set [4] (macrophages from treated mice) is reported as “may be inhibiting TNF-α release from macrophages”. Further, in data set [5] (8 weeks, 8 patients), the “patients showing improvement with treatment” value is on record as “Five out of eight”. In data set [5] (individual patient, 1 g every 6 hours for 8 doses, then 500 mg every 12 hours for 8 weeks), the “Improvement (reduction of one or more units in DAI score at end of study vs baseline)” value was “Yes (5×) and No (3×)”. Also, in data set [5] (of the 3 patients who did not respond at end of 8 week study), the “non-responders with reduction in symptoms and complaints during initial treatment” value is listed as 2 patients.
